Assay results: patent publication US10947207B2, “GP130 modulators” (THE REGENTS OF THE UNIVERSITY OF CALIFORNIA, priority 2016, dated 2021)
Values joined by “and” are separate entries in the source; they are usually repeats but may differ in a detail not shown here. Equal entries are not always repeated. “Also recorded” adds a separate entry of the source. Where two headings read alike, the source gives them in different places.

Key:
human chondrocytes = details: cited from earlier work
[1] = tested on: NMDA-treated primary hippocampal neurons; experiment: NMDA-triggered LDH release in primary hippocampal neuron culture; details: for effect on NMDA-triggered LDH release (in words): 10 μM, 16 h pretreatment, NMDA 100 μM, 2.5 h, compared with NMDA alone; for effect of SC144 on the protection by compounds 2 or 8 against NMDA-evoked excitotoxicity (LDH): SC144 pretreatment/co-treatment with compound 2 or 8
Description: In this study, the cytotoxicity of NMDA was quantified by measuring the activity of lactate dehydrogenase (LDH) released from the cultured neurons into the medium and confirmed by living cell density analysis using calcein staining. […] MK-801, a noncompetitive antagonist of NMDA receptor, was used as a control [Wong et al., 1986, Proc. Natl. Acad. Sci. U.S.A., 83(18):7104].
(§1) In the present study, primary cultures of hippocampal neurons from E15-16 mouse embryos (C57BL/6) were used. The culture was made according to a previously described protocol with minor modifications [Bilousova et al. 2006, J. Neurochem. 97(1):44]. Hippocampi were isolated in ice-cold D-Hanks buffer containing (in mM: NaCl 136.7, KCl 5.4, NaHCO3 4.2, KH2PO4 0.4, NaH2PO4 0.6, glucose 5.6, and pH 7.4). In order to achieve a single cell suspension, hippocampal tissues were treated with papain (0.5 μg/mL) and Dnase (0.6 μg/mL) for 20 min at 37° C., followed by mechanical dissociation in complete media (Neurobasal medium supplemented with B27 (Invitrogen), 25 μM glutamate, and 1% penicillin-streptomycin). The cells were plated on poly-DL-ornithine (0.5 mg/mL), and laminin (5 μg/mL) pre-coated 96-well plates (Costar) at density 1×10^5 cells/mL and maintained in a humidified 5% CO2 incubator at 37° C. The proliferations of non-neuronal cells were limited by 48 h treatment with cytosine arabinoside (10 μM) started on first day in vitro (DIV1). All experiments were performed at 9 DIV cells.
Hippocampal neurons isolated from embryos were cultured for 8 days before treatment with chemical modulators (compounds). […] Briefly, the cells were washed three times with prewarmed Locke's buffer containing (in mM: NaCl 154, KCl 5.6, NaHCO3 3.6, CaCl2 2.3, MgCl2 1.2, glucose 5.6, HEPES 5, and pH 7.4) to remove traces of growth medium. […] The incubation was terminated by removal of compound-containing buffer, followed by washing with prewarmed drug-free Locke's buffer containing 1 mM Mg^2+.
Assessment of cell damage was done by measuring the LDH activity in the culture medium. The experiment was performed per the manufacturer's protocol (Promega). Release LDH levels were expressed as a percentage compared with that of the DMSO control group (100%).

[2] = tested on: NMDA-treated hippocampal neurons; experiment: Calcein staining, density of living neurons under NMDA-induced excitotoxicity; format: cell-based, mouse; details: 10 μM pretreatment, NMDA 100 μM, 2.5 h
Description: Calcein staining was employed to evaluate the density of living neurons. A highly lipophilic non-fluorescent and cell permeable compound, calcein-acetoxymethyl ester (calcein-AM) was used for staining. Calcein-AM can be converted by intracellular esterases into calcein, an anionic fluorescent form, only labeling viable cells, and thus provides both morphological and functional information about undamaged cells.
as §1
Hippocampal neurons isolated from embryos were cultured for 8 days before treatment with chemical modulators (compounds). […]
A highly lipophilic non-fluorescent and cell permeable compound, calcein-acetoxymethyl ester (calcein-AM) was used to determine cell viability. […] Fluorescent images of live cells were collected using Lionheart FX automated digital microscope equipped with 4× objective and GFP filter cube (469/525); data was processed and analyzed using Gen5 software v. […]

[3] = tested on: pTyr-STAT3 in SH-SY5Y cells; experiment: pSTAT3 AlphaLISA in SH-SY5Y cells; format: cell-based, human; details: 30 minutes, 1 μM
Experimental: Accordingly, the human neuroblastoma cell line SH-SY5Y was used, known to express the IL-6 receptor, […] to determine JAK-STAT activation as reflected by increases in pSTAT3. In the studies set forth in FIG. 2, cells were treated for 30 minutes with potential agonists PA1, PA2, and PA3; and then lysates were analyzed using the Sure-Fire Perkin-Elmer AlphaLISA for pTyr-STAT3.

[4] = Pharmacokinetic study, brain and plasma levels in mice; format: in vivo, mouse; details: for Cmax: mouse, brain
Experimental: Since any potential therapeutic for AD needs to cross the blood-brain barrier (BBB), we further evaluated the brain permeability of Gp130 compound 2 in mice. Mice were dosed orally at 10 or 30 mg/kg, or injected subcutaneously (SQ) at 10 mg/kg, and euthanized after 1, 2, 4, 6, and 8 hours post-dose. […] The brain to plasma ratio for compound 2 was ˜4:1 for oral 30 mg/kg; and […] for 10 mg/kg SQ injection. Based on the oral brain levels of compound 2 we will conduct proof-of-concept testing in a mouse model of NMDA-induced toxicity in future studies.
The brain penetrance and plasma levels of compound 2 were assessed in a pharmacokinetic (PK) study comprising oral dosing (30 mg/kg and 10 mg/kg) and subcutaneous (sub-Q, 10 mkd) injection. For each route and dose, 5 adult wildtype mice received either 5 μL of a 50 mg/ml stock in 100% DMSO mixed 50:50 with flavoring to give 10 μL total for 10 mg/kg oral; or 10 μL of a 75 mg/ml stock in 100% DMSO mixed 50:50 with flavoring to give 20 μL final for 30 mg/kg oral; or were injected with 50 μL of a 5 mg/ml stock in 100% DMSO for sub-Q 10 mg/kg, Mice were euthanized by ketamine/xylazine over-anesthesia at 1, 2, 4, 6, and 8 h post-dosing, and blood collected by cardiac puncture. The mice were then perfused with saline and brain tissue dissected and snap frozen on dry ice. Blood was centrifuged at 3000 rpm for 10 min and the plasma supernatant was collected. Both plasma and the right hemi-brain were sent to Integrated Analytical Solutions (IAS, Berkeley, Calif.) with a reference sample of compound for compound level analysis in tissue and plasma. The compound levels were determined using a LC-MS/MS approach.

## Brc1ccc(Nc2nc(-c3ccccc3)cs2)cc1 [Compound 1, N-(4-bromophenyl)-4-phenylthiazol-2-amine]
Human chondrocytes
  apoptosis of human chondrocytes: reduce apoptosis of human chondrocytes
  pSTAT3: increase pSTAT3

## Fc1ccc(Nc2nc(-c3ccccc3)cs2)cc1 [Compound 2, N-(4-fluorophenyl)-4-phenylthiazol-2-amine]
[1]
  effect on NMDA-triggered LDH release (in words): greatest decrease
[1]; listed as compound 2
  effect on NMDA-triggered LDH release (in words): rescued the LDH increase
[2]
  density of living neurons (calcein staining): significance
[2]; listed as compound 2
  density of living neurons (calcein staining): no difference in density of living neurons
[3]
  pSTAT3 levels over DMSO control: increased pSTAT3
[4]
  oral brain permeability (in words): good oral brain permeability
[4]; dose of 30 mg/kg
  oral bioavailability (in words): orally bioavailable
[4]; po, 10 mg/kg, oral 10 mg/kg, at 1 h, read-out: Cmax for brain
  Cmax: ~18 ng/g
[4]; po, 30 mg/kg, oral 30 mg/kg, at 1 h post dose, read-out: Cmax for brain
  Cmax: ~570 nM and 156 ng/g
[4]; po, 30 mg/kg, oral 30 mg/kg, read-out: Cmax
  Cmax: 570 nM
[4]; subcutaneous, 10 mg/kg, SQ 10 mg/kg, at 2 h, read-out: Cmax for brain
  Cmax: 161 ng/g

## Brc1ccc(Nc2nc(-c3cccnc3)cs2)cc1 [Compound 4, N-(4-bromophenyl)-4-(pyridin-3-yl)thiazol-2-amine]
[1]
  effect on NMDA-triggered LDH release (in words): greatest decrease

## Fc1ccc(Nc2nc(-c3ccccc3)cs2)c(F)c1 [Compound 5, N-(2,4-difluorophenyl)-4-phenylthiazol-2-amine]
[1]
  effect on NMDA-triggered LDH release (in words): greatest decrease

## Fc1ccc(Nc2nc(-c3ccc(F)cc3)cs2)cc1 [Compound 8, N,4-bis(4-fluorophenyl)thiazol-2-amine]
[1]
  effect on NMDA-triggered LDH release (in words): rescued LDH; also recorded: greatest decrease

## C[C@]12N[C@H](Cc3ccccc31)c1ccccc12 [MK801, reference compound]
[1]
  effect on NMDA-triggered LDH release (in words): rescued the LDH increase
[2]
  density of living neurons (calcein staining): significance

## O=C(NNc1nc2cc(F)ccc2n2cccc12)c1cnccn1 [SC144]
[1]
  effect of SC144 on the protection by compounds 2 or 8 against NMDA-evoked excitotoxicity (LDH): prevented compound 2 rescue; also recorded: prevented this rescue
[1]; listed as SC-144
  effect of SC144 on the protection by compounds 2 or 8 against NMDA-evoked excitotoxicity (LDH): abated the protection

## Brc1ccc(Nc2nc(-c3ccccc3)cs2)cc1 [compound 1 (PA1)]
Human chondrocytes; Shkhyan et al. submitted manuscript
  Gp130 agonism: Gp130 agonist

## HN: 24-amino acid bioactive peptide encoded in the mitochondrial genome by the gene MT-RNR2
[1]
  effect on NMDA-triggered LDH release (in words): non-significance; also recorded: only one of them was active
[1]; no NMDA
  effect on neurons which were not treated with NMDA: Neither HN itself nor the compounds had effect

## HNG: potent HN analog, HN with a substitution of serine 14 to glycine (MAPRGFSCLLLLTGEIDLPVKRRA; UniProt Q8IVG9 1-24, looked up, variant S14G)
[1]
  effect on NMDA-triggered LDH release (in words): significance
